Reference: article PMC6522510 (Nature Communications, 2019)
Like-named read-outs stand apart in the source and are kept apart here.

Key:
[1] = test system: CMS; type: cell-based; details: Homo sapiens; 72 h, Cell Titer Glo; read-out: IC50 CMS
[2] = test system: U937; type: cell-based; details: Homo sapiens, U-937; 72 h, Cell Titer Glo
[3] = test system: CHRF288-11; type: cell-based; details: Homo sapiens; 72 h, Cell Titer Glo; read-out: IC50 CHRF288-11
[4] = test system: panel of 8 AML cell lines; test: Secondary dose-response HTS, whole panel; type: cell-based, human; details: Homo sapiens; all cell lines; read-out: potency across subtypes in the secondary HTS
[5] = test system: MV4-11; type: cell-based; details: Homo sapiens, 72 h, Cell Titer Glo
[6] = test system: CHRF288-11; test: Secondary dose-response HTS, Cell Titer Glo; type: cell-based, human; details: Homo sapiens; secondary HTS, 72 h, average of triplicate; read-out: EC50 CHRF288-11
[7] = test system: AML cell lines; details: human, 5 min, 1 µM
[8] = test system: CBFA2T3-GLIS2/JAK2V617F-induced AMKL model; test: In vivo efficacy, survival; set-up: species or system mice; details: CBFA2T3-GLIS2/JAK2V617F-Luc+ quaternary transplants, i.p.
[9] = test system: MOLM-13; test: Secondary dose-response HTS, Cell Titer Glo; type: cell-based, human; details: Homo sapiens, MOLM-13
[10] = test system: CMK; test: Secondary dose-response HTS, Cell Titer Glo; type: cell-based, human; details: Homo sapiens, CMK; secondary HTS, 72 h, average of triplicate; read-out: EC50 CMK
[11] = test system: MV4-11; test: cells; set-up: species or system AML cell lines (8); Secondary HTS, 10-point dose-response in triplicate, Cell Titer Glo viability, four-parameter fit EC50; details: Homo sapiens, MV4-11, 72 h, read-out: MV4-11
[12] = test system: Mll-PTD/wt:Flt3ITD/ITD secondary transplants; test: In vivo efficacy, survival; set-up: species or system mice; details: for Median survival: i.p.
[13] = test system: M07e; test: Secondary dose-response HTS, Cell Titer Glo; type: cell-based, human; details: Homo sapiens, M-07e
[14] = test system: CHRF288-11-luciferase/YFP+ xenograft; test: In vivo efficacy, survival; set-up: species or system NSG mice; details: CHRF288-11 xenograft, 50 mg kg−1 q4d, i.p.
[15] = test system: AML cell lines; test: Nuclear accumulation of [3H]-labelled drug; type: cell-based, human; details: 2 h, 1 µM
[16] = test system: ML-2-luciferase/YFP+ xenograft; test: In vivo efficacy, survival; set-up: species or system NSG mice; details: ML-2 xenograft, 50 mg kg−1 q4d, i.p.
[17] = test system: THP-1; type: cell-based; details: Homo sapiens, 72 h, Cell Titer Glo
[18] = test system: U937; test: cells; set-up: species or system AML cell lines (8); Secondary HTS, 10-point dose-response in triplicate, Cell Titer Glo viability, four-parameter fit EC50; details: Homo sapiens, U-937, 72 h, read-out: U937
[19] = test system: ML2; test: Secondary dose-response HTS, Cell Titer Glo; type: cell-based, human; details: Homo sapiens, ML-2
[20] = test system: MOLM-13; type: cell-based; details: Homo sapiens, 72 h, Cell Titer Glo
[21] = test system: AMKL patient-derived xenograft; test: In vivo efficacy, survival; set-up: species or system NSG-SGM3 mice; details: AMKL PDX, 50 mg kg−1 q4d, i.p.
[22] = test system: ML-2; type: cell-based; details: Homo sapiens, 72 h, Cell Titer Glo
[23] = test system: AMKL primary AML blast samples; test: Ex vivo drug treatment of primary AML blasts on mesenchymal stromal cells; type: cell-based; details: Homo sapiens; primary blasts on MSC, 96 h
[24] = test system: Mll PTD/wt:Flt3 ITD/ITD double knock-in primary transplant blasts (bone marrow, spleen); test: Accumulation in primary murine blasts; type: cell-based, mouse; details: blasts from bone marrow or spleen
Description: Cells were washed twice with ice-cold PBS; cell pellets were solubilized in 400 µL 1 N NaOH and agitated (300 rpm) at room temperature for 2 h. Then samples were neutralized with […] 1 M HCl; a 25 µL aliquot of lysate was used to estimate protein concentration using a Pierce BCA protein assay kit (Thermo Scientific). Total radioactivity was measured by a Tri-Carb 4810TR liquid scintillation counter (Perkin-Elmer) after mixing the sample with 4 mL of Emulsifier Safe (Perkin Elmer); the results were normalized to total protein content as measured by a Pierce BCA protein assay kit. Three independent experiments were performed in triplicate.
Bone marrow and splenocytes were isolated from mice transplanted with dKI AML and CG-V617 AMKL. Following red blood cells lysis, dKI AML leukemic blasts from vehicle treated mice were evaluated for accumulation of cytarabine and gemcitabine using the uptake assay described above.
Supplementary Figure 5. Accumulation of cytarabine and gemcitabine .
unlabeled and [3H]-cytarabine (Ara- C) or gemcitabine ( Gem ). Intracellular Ara- C, Gem ,
scintillation counting and normalized to protein levels. Representative chromatogram for
as disintegrations per minute (DPM) over complete run time. (c) Percentage of total
independent experiments (N=9). (d) Accumulation was determined in cell lysate of bone
double knock-in primary transplant recipient. […]

[25] = test system: MLLr primary AML blast samples; test: Ex vivo drug treatment of primary AML blasts on mesenchymal stromal cells; type: cell-based; details: Homo sapiens; primary blasts on MSC, 96 h, range over patient samples
[26] = test system: U937; test: Secondary dose-response HTS, Cell Titer Glo; type: cell-based, human; details: Homo sapiens, U-937; secondary HTS, 72 h, average of triplicate; read-out: EC50 U937
[27] = test system: CMS; test: Secondary dose-response HTS, Cell Titer Glo; type: cell-based, human; details: Homo sapiens; secondary HTS, 72 h, average of triplicate; read-out: EC50 CMS

Nc1ccn([C@@H]2O[C@H](CO)[C@@H](O)C2(F)F)c(=O)n1 [Gemcitabine, gemcitabine]
IC50 [1]: 1 nM
IC50 [2]: 31 nM
IC50 [3]: 0.4 nM
EC50 [4]: < 65 nM
IC50 [5]: 3.2 nM
EC50 [6]: 3 nM
intracellular uptake, gemcitabine relative to cytarabine [7]: 1.2–3.6 fold
Median survival ([8]; 3 mg kg−1 daily x 5 days): 91 days
Median survival ([8]; 120 mg kg−1 q3d): > 125 days
EC50 ([9]; secondary HTS, 72 h, average of triplicate, read-out: EC50 MOLM-13): 3 nM
EC50 ([9]; secondary high-throughput screen, read-out: average effective concentration, MOLM-13): 2.73 nM
EC50 [10]: 10 nM
EC50 [11]: 2.1 nM
Median survival ([12]; 3 mg kg−1 daily x 5 days): 49 days
tolerability of the intermittent MTD ([12]; 120 mg kg−1 q3d): not well tolerated
Median survival ([12]; 120 mg kg−1 q3d (only 4 doses received)): 52 days
EC50 ([13]; secondary HTS, 72 h, average of triplicate, read-out: EC50 M07e): 60 nM
EC50 ([13]; secondary high-throughput screen, M07e, read-out: average effective concentration, M07e): 62 nM
Median survival [14]: 48 days
Median survival ([14]; x 2 cycles): 66 days
nuclear accumulation, gemcitabine compared to cytarabine [15]: 5–19.8 fold
Median survival [16]: 45 days
IC50 [17]: 3.5 nM
EC50 [18]: 7.73 nM
EC50 ([19]; secondary HTS, 72 h, average of triplicate, read-out: EC50 ML2): 2 nM
EC50 ([19]; secondary high-throughput screen, read-out: average effective concentration, ML-2): 1.7 nM
IC50 [20]: 0.7 nM
Median survival [21]: 76 days
IC50 [22]: 0.6 nM
IC50 [23]: 108 nM
accumulation of total gemcitabine versus cytarabine [24]: 6.0–6.7 fold
IC50 [25]: 267 to 4230 nM
EC50 [26]: 10 nM
EC50 [27]: 30 nM
